Molecules are shown by their SMILES.

Data on eleven molecules can be found in BindingDB's records for patent US20230285340 (Theravance Biopharma R&D Ip, 2023).

The target of this experiment is Neprilysin/Angiotensin-converting enzyme (Homo sapiens, UniProt P08473+P12821). The experiment in a line: Enzyme Inhibition Assays (Assay 1).
Protocol: The assays were performed in 384-well white opaque plates at 37° C. using the fluorogenic peptide substrates at a concentration of 10 μM in Assay Buffer (NEP: 50 mM HEPES, pH 7.5, 100 mM NaCl, 0.01% polyethylene glycol sorbitan monolaurate (Tween-20), 10 μM ZnSO4; ACE: 50 mM HEPES, pH 7.5, 100 mM NaCl, 0.01% Tween-20, 1 μM ZnSO4). […] Test compounds were added to the enzymes and incubated for 30 minute at 37° C. prior to initiating the reaction by the addition of substrate. Reactions were terminated after 20 minutes of incubation at 37° C. by the addition of glacial acetic acid to a final concentration of 3.6% (v/v). […] Inhibition constants were obtained by nonlinear regression of the data using the equation (GraphPad Software, Inc., San Diego, Calif.)
`CC(C)OC(=O)C(=O)N[C@H](Cc1ccc(-c2cccc(Cl)c2)cc1)C[C@@H](O)C(=O)O` [US20230285340, Example 2G] registered a Ki of 1.26 to 10 nM.
`CC(C)COC(=O)[C@H](O)C[C@@H](Cc1ccc(-c2cccc(Cl)c2)cc1)NC(=O)C(=O)O` [US20230285340, Example 2I] returned a Ki of 1.26 to 10 nM.
`CC(C)OC(=O)[C@H](O)C[C@@H](Cc1ccc(-c2cccc(Cl)c2)cc1)NC(=O)C(=O)O` [US20230285340, Example 2J] returned a Ki of 12.6 to 100 nM.
`O=C(O)C(=O)N[C@H](Cc1ccc(-c2ccccc2)cc1Cl)C[C@@H](O)C(=O)O` [US20230285340, Example 4] showed a Ki of 1.26 to 10 nM.
`C[C@@](CO)(C[C@@H](Cc1ccc(-c2ccccc2)cc1)NC(=O)C(=O)O)C(=O)O` [US20230285340, Example 9A] came in with a Ki of 1.26 to 10 nM.
`C[C@@](CO)(C[C@@H](Cc1ccc(-c2cccc(F)c2)cc1)NC(=O)C(=O)O)C(=O)O` [US20230285340, Example 10]: the Ki was 1.26 to 10 nM.
As for `CC(O)(CN(Cc1ccc(-c2ccccc2)cc1)NC(=O)C(=O)O)C(=O)O` (stereo unspecified) [US20230285340, Example 12], the Ki lay in the range of 12.6 to 100 nM.
On to `O=C(O)C(=O)NN(Cc1ccc(-c2cccc(Cl)c2)cc1)C[C@@H](O)C(=O)O` [US20230285340, Example 13], for which the Ki lay within 1.26 to 10 nM.
`CCOC(=O)C(=O)NN(Cc1ccc(-c2cc(Cl)ccc2F)cc1)C[C@@H](O)C(=O)O` [US20230285340, Example 14F]: the Ki was in the range of 1.26 to 10 nM.
As to `CC(C)(c1ccc(-c2ccccc2)cc1)[C@H](C[C@@H](O)C(=O)O)NC(=O)C(=O)O` [US20230285340, Example 15], the Ki is 12.6 to 100 nM.
Under `CC(C)(c1ccc(-c2ccccc2)cc1)[C@H](C[C@@H](CO)C(=O)O)NC(=O)C(=O)O` [US20230285340, Example 16] stands 1.26 to 10 nM.

In general, Ki refers to the dissociation constant of the complex between target and ligand, obtained from inhibition or displacement.
